Experimental findings from patent US5530157A, “Anti-inflammatory benzoic acid derivatives” (Scios Nova Inc., priority 1995, dated 1996) are described below.

Experiment [1] relates to neutrophil accumulation in the cutaneous Reverse Passive Arthus reaction. In words: Neutrophil accumulation in the cutaneous Reverse Passive Arthus reaction in rats. Type of experiment: in vivo, Male Sprague Dawley rats. The conditions noted are these: rat, i.p.; for ED50: Neutrophil, ip, 4 h, Reverse Passive Arthus, read-out: ID50 (the source's name); for Reverse Passive Arthus % Inhibition: 1.4 mg/kg, n = 4. On the procedure:
(§1) Two in vivo models of inflammation were used to assess the anti-inflammatory activity of compounds of the invention. One model measures neutrophil accumulation in thioglycollate-induced peritonitis in mice. The other measures neutrophil accumulation in the cutaneous Reverse Passive Arthus reaction in rats. These assays were carried out as follows.
Male Sprague Dawley rats were treated with test compounds by intraperitoneal injection of 1.4 mg/kg in 1% Tween, pH 9.0 vehicle. After 1 hr, animals were lightly anesthetized with 2% isoflurane, v/v, injected by intravenous route with 1 ml of 5 mg/ml human serum albumin, immediately follwed by intracutaneous administration of 75 μl of a solution of 4 mg/ml of goat anti-human serum albumin. Animals were anesthetized 4 hrs after antigen-antibody treatment. Punch biopsies of the dorsal injection sites were performed with one biopsy weighed for wet/dry weight ratio determination. The remaining two skin biopsies were used for measuring myeloperoxidase content and were minced, weighed and homogenized for 30 sec in 20 mM phosphate buffer (pH 7.4). After centrifugation (20 min, 6000×g, 4° C.) the supernatant was decanted and the pellet resuspended in 50 mM phosphate buffer (pH 6.0) containing 0.5% hexadecyltrimethylammonium bromide. After three freeze/thaw cycles, the pellet was centrifuged (15 min, 20000×g, 4° C.) and 100 μl aliquots were added to 2.9 ml of assay buffer (50 mM phosphate buffer, 0.167 mg/ml o-dianiside, 0.05% H2 O2, pH 6.0). Absorbance at 460 nm was measured at 15 min. Results shown in Table IV were calculated as absorbance units/g dry weight.

In experiment [2] the test system is neutrophils. Nature of the experiment: Elastase release from neutrophils, fMLP. The conditions noted are these: Homo sapiens, Neutrophil; fMLP 200 nM, cytochalasin b; read-out: IC50 to inhibit elastase release, fMLP/ER. It is filed as cell-based. From the text:
(§2) Several in vitro assays were employed to determine the ability of compounds of the invention to function as anti-inflammatory agents. One group of assays measured the ability of the compounds to inhibit adherence of polymorphonuclear neutrophils to serum coated wells (in the presence of either TNF-α or PAF) or to human umbilical vein endothelial cells (in the presence of INF-γ). Another group of assays measured the ability of the compounds to inhibit the release of elastase or superoxide from activated neutrophils. These assays were performed in the following manner.
(§3) Elastase release. Neutrophils (5×10^6 /ml in HBSS) were preincubated for 5 min at 37° C. with cytochalasin b (5 μg/ml). Experiments were performed in microtubes (96 per rack) to which were added the cell suspension, test compound (50 nM-500 μM), and one of several activators (fMLP, 200 nM, C5a, 24 nM; PAF, 20nM). After incubation (30 min, 37° C.) the tubes were centrifuged (1 min, 1500 rpm) and the supernatants assayed for elastase activity according to the following protocol:
(§4) Specifically, 10 μl of purified human neutrophil elastase standard or of sample was added to 70 μl or 0.1M Tris pH 7.5, 0.5% Brij detergent and 10 μl or 5 mM elastase substrate (methoxysuccinyl-alanyl-alanyl-prolyl-valyl paranitroanilide) in a 96 well microliter plate. Plates were indubated for 60 min at 37° C. and absorbance was read at 410 nm on a microplate reader. Elastase activity was quantitated relative to standards.

Experiment [3] concerns neutrophils. Nature of the experiment: Elastase release from neutrophils, PAF. It is filed as cell-based. The conditions noted are these: Homo sapiens, Neutrophil; PAF 20 nM, cytochalasin b; read-out: IC50 to inhibit elastase release, PAF/ER.
From the text: as §2, §3, §4

Experiment [4] relates to neutrophil accumulation in thioglycollate-induced peritonitis. Nature of the experiment: Neutrophil accumulation in thioglycollate-induced peritonitis in the mouse. Particulars: mouse, i.v., 4 hrs; for ED50: Neutrophil, iv, thioglycollate-induced peritonitis, read-out: ED50. It is filed as in vivo, Male CF-1 mice. On the procedure: as §1
Male CF-1 mice were pretreated with individual test compound (4-6 mice per compound) 10 min prior to thioglycollate treatment. Test compounds at various doses, solubilized in 1% Tween, pH 9.0, were injected into the tail vein. Thioglycollate (4% Brewer's thioglycollate broth in water) was administered intraperitoneally in 1 ml volume. Peritoneal lavages, performed 4 hrs following thioglycollate treatment, involved injecting 5 ml of Dulbecco's phosphate buffered saline with 0.1% bovine serum albumin and 10 units/ml heparin into the peritoneal cavity, massaging the peritoneum, and then removing fluid through peritoneal aspiration. The lavage fluid was centrifuged, red blood cells lysed with water, cells were resuspended in Hank's balanced salt solution, and leukocytes were counted with a modified Neubauer hemacytometer. Leukocyte preparations (cytospin slides) were differentially stained with a Giemsa stain. Neutrophil accumulation expressed as a percent of control was calculated after the subtraction of baseline neutrophils from all treatement groups (see Table III).

Experiment [5] relates to human umbilical vein endothelial cells. In words: INF-γ HUVEC assay: adherence of PMN to human umbilical vein endothelial cells. It is filed as cell-based. The conditions noted are these: HUVECs with INF-γ 1 unit/mL 20 hrs, PMN activated with 50 ng/mL TNF, read-out: IC50 to inhibit adhesion, IFN-γ HUVECS.
From the text: as §2
(§5) Isolation of PMN: Blood was drawn into syringes containing heparin (1 U/mL), from human volunteers (free of any medication for at least 48 hrs). 30 mL of blood was layered over a gradient of 10 mL 1.077 g/mL Histpaque (Sigma, St. Louis, Mo.), and centrifuged at room temperature, 400×g for 20 min. All subsequent manipulations were carried out at room temperature, with endotoxin free reagents, and using polypropylene pipettes and tubes, to prevent activation of the PMN. The pinkish PMN layer immediately above the RBC was collected and washed 2× with Hank's buffered salt solution with calcium and magnesium, 0.2% glucose, and 10 mM HEPES, pH 7.2 (HBSS++) by centrifugation at 400×g for 10 min. Pellets were suspended in 8 mL 0.9% NaCl, and RBC lysed by the addition of 24 mL water for 40 sec, followed by the addition of 8 mL of 3.6% NaCl. After centrifugation at 200×g for 8 min, RBC ghosts were aspirated from the top of the PMN pellet, and cells washed with HBSS++. PMN adherence to protein substrates: 96 well tissue culture plates were coated with 10% pooled human serum (North American Biological,;, Miami, Fla.) in phosphate buffered saline (PBS) for 1 hr at 37° C., followed by washing 3× with PBS. Test compounds were prepared in DMSO as 100× stocks. PMN (4×10^6 /mL) were preincubated with test compounds for 10 min at 37° C. in serum-coated wells. Tumor necrosis factor (TNF-α) was added to 3 nM or platelet aggregation facor (PAF) to 1 μM, and adherence was carried out for 20 or 10 min, respectively. Nonadherent cells were aspirated, and wells washed two times with warm PBS with calcium and magnesium, with blotting of the inverted plate following each aspiration. Adherent PMN were quantitated using a BCA protein assay (Pierce, Rockford, Ill.).
INF-γHUVEC Assay. Primary human umbilical vein endothelial cells (HUVECs) from Clonetics Corp. (San Diego, Calif.) were seeded at 20,000 cells per wall in a 96 well tissue culture plate that was coated with fibronectin, for 45 min and then twice rinsed with phosphate buffered saline. To the culture media (M199, 80%; FBS, 20%; […] endothelial cell growth factor (Maciag et all, Proc. Natl. Acad. Sci. USA (1979) 76(11):5674-5678), 0.1 mg/mL heparin; 5% CO2; 37° C.) was added INF-γ (R&D Systems) at 1 unit/mL for 20 hrs. Isolated PMNs were loaded with the fluorescent dye BCECF AM (Molecular Probes) by incubating 1×10^7 cells/mL in HBSS with 4 μM dye for 30 min at 37° C. The PMNs were incubated with test compound for 10 min at 37° C., then activated with 50 ng/mL TNF and immediately added to the HUVECs which had been rinsed twice with HBSS+1% human serum. The co-culture plate was incubated at 37° C. for 20 min followed by gentle washing (twice) with HBSS+1% human serum. The extent of adherence was assessed by measuring the amount of fluorescence (485-535 nm filter) in each well with a fluorescence plate reader (Idexx).

Experiment [6] relates to polymorphonuclear neutrophils. Nature of the experiment: Adherence of PMN to serum coated wells, TNF-α. It is filed as cell-based. Particulars: Homo sapiens, Polymorphonuclear neutrophil, 20 min, TNF-α 3 nM, read-out: IC50 to inhibit adhesion, TNF-α serum.
From the text: as §2, §5

Experiment [7] deals with polymorphonuclear neutrophils. Nature of the experiment: Adherence of PMN to serum coated wells, PAF. Particulars: Homo sapiens, Polymorphonuclear neutrophil, 10 min, PAF 1 μM, read-out: IC50 to inhibit adhesion, PAF serum. Type of experiment: cell-based.
From the text: as §2, §5

Each structure is given as a SMILES string.

Regarding `O=C(O)c1ccc(CCc2ccccc2-c2ccccc2)cc1` [NPC 18731, 4-[2-(biphenyl)ethyl]benzoic acid], the ED50 in experiment [1] worked out at 0.1 mg/kg; in experiment [4] it was 4 mg/kg. In addition, the “Reverse Passive Arthus % Inhibition” value in experiment [1] is recorded as 40%. The IC50 in the experiment on neutrophils [2] turned out to be 8.7 µM; with neutrophils [3], 19.9 µM; in experiment [5], 28 µM; in experiment [6], 6.4 µM; in experiment [7], 6.5 µM. Moreover, the “% Inhibition of neutrophil accumulation” value in experiment [4] (3 mg/kg) came out at 22%; in experiment [4] (10 mg/kg) it was 44%; in experiment [4] (30 mg/kg), 59%; in experiment [4] (60 mg/kg), 59%.
As for `O=C(O)c1ccc(/C=C/c2ccccc2-c2ccc3ccccc3c2)cc1` [NPC 18812, 4-{2-[2-(2-naphthyl)phenyl]-(E)-ethenyl}benzoic acid], the ED50 in experiment [1] is 0.5 mg/kg; in experiment [4], 7 mg/kg. Further, the “Reverse Passive Arthus % Inhibition” value in experiment [1] amounted to 29%. Further, the IC50 in the experiment on neutrophils [3] was 7.6 µM; in experiment [5], 14.5 µM; in experiment [6], 3.6 µM; in experiment [7], 1.17 µM. In addition, the “% Inhibition of neutrophil accumulation” value in experiment [4] (3 mg/kg) is 12%; in experiment [4] (10 mg/kg), 50%; in experiment [4] (30 mg/kg) it was 71%; in experiment [4] (60 mg/kg) it was 94%.
As to `O=C(O)c1ccc(/C=C/c2ccccc2-c2cc3ccccc3o2)cc1` [NPC 18915, 4-{2-[2-(2-benzofuranyl)phenyl]-(E)-ethenyl} benzoic acid], the IC50 in experiment [7] amounted to 0.64 µM.
